Type in all cases: cell-based
Assay [1] relates to LN229 gliobastoma cells MGMT+/MMR+. Description: Anti-cancer assay, isogenic LN229 cells, nuclei count (Example 43). Particulars: Homo sapiens, LN-229; LN229 MGMT+/MMR+; 120 hours; read-out: MGMT+ MMR+ Activity. The source says: (§1) Cytotoxicity of the compounds may be measured in short-term cell viability assays against four isogenic LN229 glioblastoma cell lines engineered to be proficient or deficient in MGMT and/or MMR activity by using short hairpin RNAs (shRNAs) targeting MSH2. This approach allows for determination of the relationship between MGMT status, MMR status, and compound activity. LN229 cells are maintained in Dulbecco's Modified Eagle Medium (DMEM) supplemented with 10% fetal bovine serum, 1% Penicillin/Streptomycin, and 0.1% Fungin. DAY 0: Cells are plated into sterile 96-well plates (Corning Costar 96-well) at a concentration of 500 cells/well using a Multichannel pipettor. Then, assay plates are incubated overnight in a 37° C. 5% CO2 incubator. DAY 1: Compounds are prepared as 50 mM stocks in dimethyl sulfoxide (DMSO) and stored protected from light at room temperature (RT) until use. Prior to compound addition, a two-fold serial dilution of compound stock solutions is performed in DMSO from 30 mM to 0.117 mM in a 96-well Master plate. Vehicle control wells contain DMSO. 97 μL of media is added to each well of a new 96-well plate (Daughter plate) and 3 μL of drug solution from Master plate is added to corresponding wells in the Daughter plate resulting in a 3× plate. Three replicate dilution curves of each compound are run on each assay plate. The final concentration of compounds ranges from 300 μM to 1.171 μM (9-point, 2-fold dilution dose response curve), and the final DMSO concentration is 1%.
(§2) Assay plates are incubated for 120 hours at 37° C. in a humidified 5% CO2 incubator. DAY 5: Following incubation, cells are fixed with 4% paraformaldehyde and stained with Hoechst dye for nuclei visualization. Fixation, staining and washing is performed by using a Thermo Scientific Multidrop Combi. Images are acquired on a BioTek Cytation 5 Cell Imaging Multimode Reader and quantified using Cell Profiler image analysis software. Raw cell count data for test compounds are normalized to percent viability relative to the DMSO vehicle control.
(§3) Isogenic LN229 gliobastoma cells were maintained in Dulbecco's Modified Eagle Medium (DMEM) supplemented with 10% fetal bovine serum, 1% Penicillin/Streptomycin, and 0.1% Fungin. DAY 0: Cells were plated into sterile 96-well plates (Corning Costar 96-well) at a concentration of 500 cells/well using a Multichannel pipettor. Then, assay plates were incubated overnight in a 37° C. 5% CO2 incubator. DAY 1: Compounds were prepared as 50 mM stocks in dimethyl sulfoxide (DMSO) and stored protected from light at room temperature (RT) until use. Prior to compound addition, a two-fold serial dilution of compound stock solutions was performed in DMSO from 30 mM to 0.117 mM in a 96-well Master plate. Vehicle control wells contained DMSO. 97 μL of media was added to each well of a new 96-well plate (Daughter plate) and 3 μL of drug solution from Master plate was added to corresponding wells in the Daughter plate resulting in a 3× plate. Three replicate dilution curves of each compound were run on each assay plate. The final concentration of compounds ranged from 300 μM to 1.171 μM (9-point, 2-fold dilution dose response curve), and the final DMSO concentration was 1%.
(§4) Assay plates were incubated for 120 hours at 37° C. in a humidified 5% CO2 incubator. DAY 5: Following incubation, cells were fixed with 4% paraformaldehyde and stained with Hoechst dye for nuclei visualization. Fixation, staining and washing was performed by using a Thermo Scientific Multidrop Combi. Images were acquired on a BioTek Cytation 5 Cell Imaging Multimode Reader and quantified using Cell Profiler image analysis software. Raw cell count data for test compounds were normalized to percent viability relative to the DMSO vehicle control.

Assay [2] has as its system LN229 gliobastoma cells MGMT+/MMR−. The assay is described as above. The conditions noted are these: Homo sapiens, LN-229; LN229 MGMT+/MMR−; 120 hours; read-out: MGMT+ MMR− Activity.
Description: as §1, §2, §3, §4

A further assay concerns BC-1. Description: Cell panel nuclear dye assay. Particulars: Homo sapiens, BC1, 120 h, Lymphoma (B-cell), 5-day incubation. How it is done:
(§5) Cells were grown in RPMI1640, 10% FBS, 2 mM L-alanyl-L-glutamine, 1 mM Na pyruvate, or a special medium. Cells were seeded into 384-well plates and incubated in a humidified atmosphere of 5% CO2 at 37° C. Compound was added the day following cell seeding. At the same time, a time zero untreated cell plate was generated. After a 5-day incubation period, cells were fixed and stained to allow fluorescence imaging of nuclei.
(§6) Compounds were serially diluted in 2-fold steps from the highest test concentration specified, and assayed over 10 concentrations with a maximum assay concentration of 0.1% DMSO. Automated fluorescence microscopy was carried out using a Molecular Devices ImageXpress Micro XL high-content imager, and images were collected with a 4× objective. 16-bit TIFF images were acquired and analyzed with MetaXpress 5.1.0.41 software.
(§7) Cell proliferation was measured by the fluorescence intensity of an incorporated nuclear dye. The output is referred to as the relative cell count, where the measured nuclear intensity is transformed to percent of control (POC) using the following formula: […]
(§8) Cell count IC50 is the test compound concentration at 50% of maximal possible response. EC50 is the test compound concentration at the curve inflection point or half the effective response (parameter C of the fitted curve solution). GI50 is the concentration needed to reduce the observed growth by half (midway between the curve maximum and the time zero value). Activity area is an estimate of the integrated area above the curve. Activity area values range from 0-10, where a value of zero indicates no inhibition of proliferation at all concentrations, and a value of 10 indicates complete inhibition of proliferation at all concentrations. In rare instances, values <0 or >10 may be observed. In these instances, values <0 should be considered as equivalent to 0, whereas values >10 should be considered equivalent to 10.

A further assay relates to C32. Description: Cell panel nuclear dye assay. The conditions noted are these: Homo sapiens, 120 h, Melanoma, 5-day incubation. As for the experimental part:
as §5, §6, §7, §8

The next assay concerns OE21. The assay can be described thus: Cell panel nuclear dye assay. Particulars: 120 h, Head & neck (squamous cell carcinoma, esophagus), 5-day incubation. How it is done: as §5, §6, §7, §8
The next assay has as its system SCC-4. Description: Cell panel nuclear dye assay. The conditions noted are these: Homo sapiens, 120 h, Head & neck (squamous cell carcinoma, tongue), 5-day incubation. How it is done: as §5, §6, §7, §8
A further assay has as its system SW1088. Description: Cell panel nuclear dye assay. The conditions noted are these: Homo sapiens, 120 h, Glioma (astrocytoma), 5-day incubation. As for the experimental part:
as §5, §6, §7, §8

Assay [3] concerns LN229 gliobastoma cells MGMT−/MMR−. Description: Anti-cancer assay, isogenic LN229 cells, nuclei count (Examples 43, 46). Particulars: Homo sapiens, LN-229; MGMT negative/MMR negative; Example 46, maximum concentration 200 μM; read-out: IC50 for causing the death of LN229 cells.

As for `NC(=O)c1ncn2c(=O)n(CCOC(F)(F)F)nnc12` [Compound I-1, 4-Oxo-3-(2-(trifluoromethoxy)ethyl)-3,4-dihydroimidazo[5,1-d][1,2,3,5]tetrazine-8-carboxamide], the IC50 in assay [1] was more than 100 µM; in assay [2] it was more than 100 µM; in the assay on BC-1, not above 30 µM; in the assay with C32, 70 to 150 µM; in the assay with OE21, 30 to 70 µM; in the assay on SCC-4, more than 150 µM. The values for the IC50 (with SW1088; in assay [3]) were 70 to 150 µM and less than 20 µM, respectively. Further, the EC50 in the assay with BC-1 is not above 30 µM; in the assay on C32, 30 to 70 µM; in the assay with OE21 it was 30 to 70 µM; with SCC-4 it was not above 30 µM; in the assay with SW1088 it was 70 to 150 µM.

Values taken from US20250066371A1, “FLUOROALKOXYALKYLENE-DIHYDROIMIDAZO[5,1-D]TETRAZINONE COMPOUNDS AND RELATED COMPOUNDS AND THEIR USE IN TREATING MEDICAL CONDITIONS” (priority 2023, published 2025).
